# Measured values published in patent US20220168427A1 (Ranok Therapeutics (Hangzhou) Co. Ltd., priority 2019, published 2022).
# Assays:
# [1] = target: T1, BRD4 (BD1+BD2) (Homo sapiens, UniProt O60885); settings: read-out: BRD4 Binding Potency
# T1 construct: 1.8 μg/ml recombinant BRD4 (BD1+BD2 domains) protein
# [2] = target: HSP90α (Homo sapiens, UniProt P07900); test: HSP90α Binding Fluorescent Polarization (FP) Assay; settings: competition with FITC-geldanamycin; read-out: HSP90 Binding Potency
# Method in brief: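 Duplicate wells held BSA buffer, FITC-geldanamycin tracer, compound (3-fold dilution plate spanning 40 μM–2.0 nM) and recombinant protein diluted to 28 μg/ml before addition. Polarization read at 30, 60 and 120 min, 25 °C. Background-corrected mP values gave IC50 through a four-parameter inhibitor-response fit.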
# [3] = test system: MV4-11 cells; test: MV4-11 Cell Cytotoxicity Assay; type: cell-based, human; settings: human, MV4-11 cells, CCK-8
# Excerpt: % Inhibition=100−(D−B)/(S−B)*100%.
# S: The absorbance of the maximum (cells with DMSO)
# B: The absorbance of the minimum (medium with DMSO)
Compound,IC50 [1] [µM],IC50 [2] [µM],IC50 at 72 h [3] [µM]
"Cc1sc2c(c1C)C(c1ccc(Cl)cc1)=N[C@@H](CC(=O)Nc1ccc(NC(=O)C3CCN(Cc4ccc(-n5c(O)nnc5-c5cc(C(C)C)c(O)cc5O)cc4)CC3)cc1)c1nnc(C)n1-2 [Compound 72, N-(4-(2-((6S)-4-(4-chlorophenyl)-2,3,9-trimethyl-6H-thieno[3,2-f][1,2,4]triazolo[4,3-a][1,4]diazepin-6-yl)acetamido)phenyl)-1-(4-(3-(2,4-dihydroxy-5-isopropylphenyl)-5-hydroxy-4H-1,2,4-triazol-4-yl)benzyl)piperidine-4-carboxamide, trifluoroacetic acid]",> 1,> 1,< 0.1
"CCc1cc(-c2nnc(O)n2-c2ccc(CN3CCC(C(=O)N4CCC(CNC(=O)C[C@@H]5N=C(c6ccc(Cl)cc6)c6c(sc(C)c6C)-n6c(C)nnc65)C4)CC3)cc2)c(O)cc1O (stereo partly drawn) [Compound 77, 2-((6S)-4-(4-chlorophenyl)-2,3,9-trimethyl-6H-thieno[3,2-f][1,2,4]triazolo[4,3-a][1,4]diazepin-6-yl)-N-((1-(1-(4-(3-(5-ethyl-2,4-dihydroxyphenyl)-5-hydroxy-4H-1,2,4-triazol-4-yl)benzyl)piperidine-4-carbonyl)pyrrolidin-3-yl)methyl)acetamide, trifluoroacetic acid]",< 0.1,0.1 to 1,0.1 to 1
"Cc1sc2c(c1C)C(c1ccc(Cl)cc1)=N[C@@H](CC(=O)N1CCN(c3ccc(-n4c(O)nnc4-c4cc(C(C)C)c(O)cc4O)cc3)CC1)c1nnc(C)n1-2 [Compound 79, (S)-2-(4-(4-chlorophenyl)-2,3,9-trimethyl-6H-thieno[3,2-f][1,2,4]triazolo[4,3-a][1,4]diazepin-6-yl)-1-(4-(4-(3-(2,4-dihydroxy-5-isopropylphenyl)-5-hydroxy-4H-1,2,4-triazol-4-yl)phenyl)piperazin-1-yl)ethan-1-one]",0.1 to 1,0.1 to 1,< 0.1
"Cc1sc2c(c1C)C(c1ccc(Cl)cc1)=N[C@@H](CC(=O)N1CCC(CCN3CCC(Cc4ccc(-n5c(O)nnc5-c5cc(C(C)C)c(O)cc5O)cc4)CC3)CC1)c1nnc(C)n1-2 [Compound 80, (S)-2-(4-(4-chlorophenyl)-2,3,9-trimethyl-6H-thieno[3,2-f][1,2,4]triazolo[4,3-a][1,4]diazepin-6-yl)-1-(4-(2-(4-(4-(3-(2,4-dihydroxy-5-isopropylphenyl)-5-hydroxy-4H-1,2,4-triazol-4-yl)benzyl)piperidin-1-yl)ethyl)piperidin-1-yl)ethan-1-one, trifluoroacetic acid]",< 0.1,0.1 to 1,< 0.1
"Cc1sc2c(c1C)C(c1ccc(Cl)cc1)=N[C@@H](CC(=O)N[C@H](C)c1cccc(CN3CCC(Cc4ccc(-n5c(O)nnc5-c5cc(C(C)C)c(O)cc5O)cc4)CC3)c1)c1nnc(C)n1-2 [Compound 81, 2-((S)-4-(4-chlorophenyl)-2,3,9-trimethyl-6H-thieno[3,2-f][1,2,4]triazolo[4,3-a][1,4]diazepin-6-yl)-N—((R)-1-(3-((4-(4-(3-(2,4-dihydroxy-5-isopropylphenyl)-5-hydroxy-4H-1,2,4-triazol-4-yl)benzyl)piperidin-1-yl)methyl)phenyl)ethyl)acetamide, trifluoroacetic acid]",0.1 to 1,0.1 to 1,< 0.1
"Cc1sc2c(c1C)C(c1ccc(Cl)cc1)=N[C@@H](CC(=O)N1CCC(Cc3ccc(CN(C)Cc4ccc(-n5c(O)nnc5-c5cc(C(C)C)c(O)cc5O)cc4)cc3)CC1)c1nnc(C)n1-2 [Compound 83, (S)-2-(4-(4-chlorophenyl)-2,3,9-trimethyl-6H-thieno[3,2-f][1,2,4]triazolo[4,3-a][1,4]diazepin-6-yl)-1-(4-(4-(((4-(3-(2,4-dihydroxy-5-isopropylphenyl)-5-hydroxy-4H-1,2,4-triazol-4-yl)benzyl)(methyl)amino)methyl)benzyl)piperidin-1-yl)ethan-1-one, trifluoroacetic acid]",> 1,0.1 to 1,< 0.1
